Experimental data taken from patent US20230365592A1 (Agios Pharmaceuticals, Inc., priority 2022, published 2023).

These compounds were tested against T1, human PAH with the R408W mutation (Homo sapiens, UniProt P00439, R408W) (assay: Cell Based Phenylalanine Flux Assay). Settings: A375 cells expressing R408W PAH; 24 hrs with compound, then 20 µM sepiapterin and 800 µM 13C9,15N-Phenylalanine for 4 hours; 13C-Tyrosine by LC-MS; average where tested multiple times; read-out: AC50.
T1 construct: expressed in transfected cells
T1 sequence (P00439 1-452 R408W): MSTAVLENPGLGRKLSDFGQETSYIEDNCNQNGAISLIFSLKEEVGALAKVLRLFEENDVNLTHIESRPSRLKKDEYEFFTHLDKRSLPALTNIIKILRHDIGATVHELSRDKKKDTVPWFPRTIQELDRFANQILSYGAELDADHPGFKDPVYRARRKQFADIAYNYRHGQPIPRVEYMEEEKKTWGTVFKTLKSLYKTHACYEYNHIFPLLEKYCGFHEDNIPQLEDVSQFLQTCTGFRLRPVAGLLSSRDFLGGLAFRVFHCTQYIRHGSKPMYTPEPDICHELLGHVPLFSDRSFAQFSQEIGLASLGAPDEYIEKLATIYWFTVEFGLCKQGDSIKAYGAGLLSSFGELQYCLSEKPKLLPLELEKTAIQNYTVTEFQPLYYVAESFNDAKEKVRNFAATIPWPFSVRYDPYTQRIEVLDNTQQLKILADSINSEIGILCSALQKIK
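Also: after compound treatment, cells received sepiapterin plus isotope-labelled Phenylalanine for 4 hours, then labelled Tyrosine in the medium was quantified, 10-point 2-fold dilution series run in duplicate.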

Structure (SMILES) | AC50 [µM]
Cc1ccn2nc(C3c4nc[nH]c4CCN3C(=O)c3nnc(-c4ccn(C)n4)o3)cc2c1 (stereo not drawn) [listing 1 of 2 here] | > 5
Cc1ccn2nc(C3c4nc[nH]c4CCN3C(=O)c3nnc(-c4cnn(C)c4)o3)cc2c1 (stereo not drawn) | > 5
Cc1ccn2nc(C3c4nc[nH]c4CCN3C(=O)c3nnc(-c4ccn(C)n4)o3)cc2c1 (stereo not drawn) [listing 2 of 2 here] | 1 to 5
Cc1cccn2nc(C3c4nc[nH]c4CCN3C(=O)c3oc(-c4ccccn4)nc3C(F)F)cc12 (stereo not drawn) | 1 to 5
CC(C)(O)c1nnc(C(=O)N2CCc3[nH]cnc3C2c2cc3c(F)cccn3n2)o1 (stereo not drawn) | 1 to 5
Cc1cccn2nc(C3c4nc[nH]c4CCN3C(=O)c3nnc(C(C)(C)O)o3)cc12 (stereo not drawn) | 1 to 5
CC(C)(O)c1ncc(C(=O)N2CCc3[nH]cnc3C2c2cc3ccccn3n2)o1 (stereo not drawn) | 1 to 5
O=C(c1nnc(N2CCOCC2)o1)N1CCc2[nH]cnc2C1c1cc2c(F)cccn2n1 (stereo not drawn) | 1 to 5
Cc1cccn2nc(C3c4nc[nH]c4CCN3C(=O)c3nnc(N4CCOCC4)o3)cc12 (stereo not drawn) | 1 to 5
Cn1cc(-c2nc(C(F)F)c(C(=O)N3CCc4[nH]cnc4C3c3cc4ccccn4n3)o2)cn1 (stereo not drawn) | 1 to 5
Cn1ccc(-c2nc(C(F)F)c(C(=O)N3CCc4[nH]cnc4C3c3cc4ccccn4n3)o2)n1 (stereo not drawn) | > 5
Cc1cccn2nc(C3c4nc[nH]c4CCN3C(=O)c3oc(-c4ccn(C)n4)nc3C(F)F)cc12 (stereo not drawn) | 1 to 5
Cn1ccc(-c2nc(C(F)F)c(C(=O)N3CCc4[nH]cnc4C3c3cc4c(F)cccn4n3)o2)n1 (stereo not drawn) | > 5
Cc1nc(C(=O)N2CCc3[nH]cnc3C2c2cc3c(F)cccn3n2)n(C)n1 (stereo not drawn) | 1 to 5
Cc1cccc2cc([C@H]3c4nc[nH]c4CCN3C(=O)c3ncnn3C)nn12 (single isomer, unassigned) | > 5
Cn1cc(-c2ccc3c(C(=O)N4CCc5[nH]cnc5[C@@H]4c4cc5ccccn5n4)cnn3c2)cn1 (single isomer, unassigned) | 1 to 5
O=C(c1nnc(C2CC(F)(F)C2)o1)N1CCc2[nH]cnc2[C@@H]1c1cc2cccc(C(F)F)n2n1 (single isomer, unassigned) | > 5
FC(F)c1cccn2nc([C@H]3c4nc[nH]c4CCN3c3nc4ccccc4o3)cc12 (single isomer, unassigned) | > 5
Cn1cc(-c2nnc(C(=O)N3CCc4[nH]cnc4[C@@H]3c3cc4cc(F)ccn4n3)o2)cn1 (single isomer, unassigned) | 1 to 5
Cc1nc(C(C)(C)O)oc1C(=O)N1CCc2[nH]cnc2[C@@H]1c1cc2cccc(C(F)(F)F)n2n1 (single isomer, unassigned) | 1 to 5
CC(C)c1nnc(C(=O)N2CCc3[nH]cnc3[C@@H]2c2cc3cccc(C(F)(F)F)n3n2)o1 (single isomer, unassigned) | 1 to 5
FC(F)c1cccc2cc([C@H]3c4nc[nH]c4CCN3c3nnc(C4CCC4)o3)nn12 (single isomer, unassigned) | > 5

Structure (SMILES) | AC50 [µM]
Cc1nnc(C(=O)N2CCc3[nH]cnc3[C@@H]2c2cc3cccc(C(F)(F)F)n3n2)o1 (single isomer, unassigned) | 1 to 5
Cc1cccn2nc([C@H]3c4nc[nH]c4CCN3c3nnc(-c4cccnc4)o3)cc12 (single isomer, unassigned) | > 5
COc1cccn2nc([C@H]3c4nc[nH]c4CCN3C(=O)c3cc(C(C)(C)C)nn3C)cc12 (single isomer, unassigned) | > 5
O=C(c1ocnc1C1CC1)N1CCc2[nH]cnc2[C@@H]1c1cc2cccc(C(F)(F)F)n2n1 (single isomer, unassigned) | > 5
O=C(c1cnco1)N1CCc2[nH]cnc2[C@@H]1c1cc2ccccn2n1 (single isomer, unassigned) | 1 to 5
Cc1cccc2cc([C@H]3c4nc[nH]c4CCN3C(=O)c3cnn4cc(C5CC5)ccc34)nn12 (single isomer, unassigned) | > 5
Cc1ccn2nc([C@@H]3c4nc[nH]c4CCN3C(=O)c3ccnn3C(F)F)cc2c1 (single isomer, unassigned) | 1 to 5
Cn1cc(N2CCc3[nH]cnc3[C@H]2c2cc3ccccn3n2)cn1 (single isomer, unassigned) | > 5
Cn1ccc(-c2ncc(C(=O)N3CCc4[nH]cnc4[C@H]3c3cc4ccccn4n3)o2)n1 (single isomer, unassigned) | 1 to 5
CC1(c2nnc(-n3cnc4c3[C@@H](c3cc5ccccn5n3)NCC4)o2)CC1 (single isomer, unassigned) | 1 to 5
Cc1c([C@@H]2c3nc[nH]c3CCN2C(=O)c2nnc(-c3cnn(C)c3C)o2)nn2ccccc12 (single isomer, unassigned) | 1 to 5
CC(C)(F)c1nnc(C(=O)N2CCc3[nH]cnc3[C@H]2c2cc3cc(C(F)(F)F)ccn3n2)o1 (single isomer, unassigned) | 1 to 5
CC(C)(F)c1nnc(C(=O)N2CCc3[nH]cnc3C2c2cc3cc(F)ccn3n2)o1 (single isomer, unassigned) | 1 to 5
Cc1cccn2nc([C@@H]3c4nc[nH]c4CCN3c3nnc(C4CC(F)(F)C4)o3)cc12 (single isomer, unassigned) | 1 to 5
O=C(c1nnc(C2CC(F)(F)C2)o1)N1CCc2[nH]cnc2[C@H]1c1cc2cccc(F)n2n1 (single isomer, unassigned) | 1 to 5
Cn1cc(-c2nnc(N3CCc4[nH]cnc4[C@H]3c3cc4c(F)cccn4n3)o2)cn1 (single isomer, unassigned) | 1 to 5
Cc1nnc(N2CCc3[nH]cnc3[C@H]2c2cc3c(F)cccn3n2)o1 (single isomer, unassigned) | 1 to 5
O=C(c1nnc(-c2cn[nH]c2)o1)N1CCc2[nH]cnc2[C@H]1c1cc2c(F)cccn2n1 (single isomer, unassigned) | 1 to 5
COc1cccn2nc([C@@H]3c4nc[nH]c4CCN3c3nnc(C)o3)cc12 (single isomer, unassigned) | 1 to 5
Cc1nnc(C(=O)N2CCc3[nH]cnc3[C@H]2c2cc3ccc(F)cn3n2)o1 (single isomer, unassigned) | 1 to 5
Cc1nnc(C(=O)N2CCc3[nH]cnc3[C@H]2c2cc3cccc(C(F)F)n3n2)o1 (single isomer, unassigned) | 1 to 5
Cn1cnc(-c2nnc(C(=O)N3CCc4[nH]cnc4[C@H]3c3cc4cccc(C(F)F)n4n3)o2)c1 (single isomer, unassigned) | 1 to 5

Structure (SMILES) | AC50 [µM]
Nc1cnc(N2CCc3[nH]cnc3[C@H]2c2cc3cccc(C(F)F)n3n2)nc1 (single isomer, unassigned) | > 5
Cc1nnc(N2CCc3[nH]cnc3[C@H]2c2cc3cccc(Cl)n3n2)o1 (single isomer, unassigned) | 1 to 5
O=C(c1oc(-c2ccccn2)nc1C1CC1)N1CCCc2[nH]cnc2[C@H]1c1cc2ccccn2n1 (single isomer, unassigned) | 1 to 5
FC(F)(F)c1cccn2nc([C@@H]3c4nc[nH]c4CCN3c3nnc(-c4ncccn4)o3)cc12 (single isomer, unassigned) | 1 to 5
O=C(c1nnc(-c2ncccn2)o1)N1CCc2[nH]cnc2[C@H]1c1cc2c(C3CC3)cccn2n1 (single isomer, unassigned) | > 5
COc1cccn2nc([C@@H]3c4nc[nH]c4CCN3C(=O)c3nnc(C(C)(C)O)o3)cc12 (single isomer, unassigned) | > 5
Cc1cccn2nc([C@@H]3c4nc[nH]c4CCN3c3nnc(-c4ncccn4)o3)cc12 (single isomer, unassigned) | 1 to 5
CC(C)(O)c1ncc(C(=O)N2CCc3[nH]cnc3[C@H]2c2cc3cccc(Cl)n3n2)o1 (single isomer, unassigned) | 1 to 5
Cc1cccc2cc([C@@H]3c4nc[nH]c4CCN3C(=O)c3cnc(C(C)(C)O)o3)nn12 (single isomer, unassigned) | 1 to 5
O=C(c1cnc(-c2cnccn2)o1)N1CCc2[nH]cnc2C1c1cc2ccccn2n1 (single isomer, unassigned) | 1 to 5
COc1cccn2nc([C@@H]3c4nc[nH]c4CCN3c3nnc(C4CC4)o3)cc12 (single isomer, unassigned) | 1 to 5
c1ccn2nc([C@H]3NCCc4ncn(-c5nnc(C6CC6)o5)c43)cc2c1 (single isomer, unassigned) | 1 to 5
Fc1cccn2nc(C3c4nc[nH]c4CCN3c3nnc(-c4cccnc4)o3)cc12 (single isomer, unassigned) | 1 to 5
c1ccn2nc([C@@H]3c4nc[nH]c4CCN3c3nnc(N4CCOCC4)o3)cc2c1 (single isomer, unassigned) | > 5
COCc1ccc2c(C(=O)N3CCc4[nH]cnc4[C@H]3c3cc4cccc(F)n4n3)cnn2c1 (single isomer, unassigned) | 1 to 5
O=C(c1cnco1)N1CCc2[nH]cnc2[C@H]1c1cc2ccc(F)cn2n1 (single isomer, unassigned) | 1 to 5
Cn1ncc(C(=O)N2CCc3[nH]cnc3[C@H]2c2cc3ccccn3n2)c1C(F)F (single isomer, unassigned) | 1 to 5
CN(C)C(=O)c1nnc(N2CCc3[nH]cnc3[C@H]2c2cc3c(C(F)(F)F)cccn3n2)o1 (single isomer, unassigned) | 1 to 5
Cc1nc([C@H](C)O)oc1C(=O)N1CCc2[nH]cnc2[C@H]1c1cc2cccc(C)n2n1 (single isomer, unassigned) | 1 to 5
COc1cccn2nc([C@@H]3c4nc[nH]c4CCN3C(=O)c3cnn4cc(CN(C)C)ccc34)cc12 (single isomer, unassigned) | 1 to 5
CN(C)CCc1ccc2c(C(=O)N3CCc4[nH]cnc4[C@H]3c3cc4ccccn4n3)cnn2c1 (single isomer, unassigned) | > 5
COC(=O)N1CC(C(=O)N2CCc3[nH]cnc3[C@H]2c2cc3ccccn3n2)C1 (single isomer, unassigned) | > 5
